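Following 48 hours of exposure in 96-well plates, responses at five concentrations were used to interpolate endpoints linearly. TGI marks complete inhibition of growth.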
Key:
Assay in all cases: DTP human tumour cell line panel, 48 h
OVCAR-4 ovarian = test system: OVCAR-4 ovarian
MDA-MB-435 = test system: MDA-MB-435
LOX IMVI melanoma = test system: LOX IMVI melanoma
ACHN renal = test system: ACHN renal
M14 melanoma = test system: M14 melanoma
MDA-MB-231 breast = test system: MDA-MB-231 breast
UACC-257 melanoma = test system: UACC-257 melanoma
SR leukemia = test system: SR leukemia
HCT-116 colon = test system: HCT-116 colon
SN12C renal = test system: SN12C renal
DU-145 prostate = test system: DU-145 prostate
HOP-92 NSCLC = test system: HOP-92 NSCLC
NCI-H460 lung = test system: NCI-H460 lung
T-47D breast = test system: T-47D breast

Row | SMILES | TGI (OVCAR-4 ovarian) [µM] | TGI (MDA-MB-435) [µM] | TGI (LOX IMVI melanoma) [µM] | TGI (ACHN renal) [µM] | TGI (M14 melanoma) [µM] | TGI (MDA-MB-231 breast) [µM] | TGI (UACC-257 melanoma) [µM] | TGI (SR leukemia) [µM] | TGI (HCT-116 colon) [µM] | TGI (SN12C renal) [µM] | TGI (DU-145 prostate) [µM] | TGI (HOP-92 NSCLC) [µM] | TGI (NCI-H460 lung) [µM] | TGI (T-47D breast) [µM]
1 | COc1cc(/C=C2\CCC(C)c3c2nc(N)c(C#N)c3-c2cc(OC)c(OC)c(OC)c2)cc(OC)c1OC (stereo unspecified) | 78.1 | > 100 | > 100 | > 100 | > 100 | > 100 | > 100 | > 100 | > 100 | > 100 | > 100 | > 100 |  | 
2 | COc1ccc2c(c1)CC1NC2Cc2ccccc21 (stereo unspecified) | > 100 |  |  | > 100 | > 100 |  | > 100 |  | > 100 |  |  |  | > 100 | 
3 | CCOC(=O)Cc1nc2nn(Cc3ccccc3)cc2c(=O)[nH]1 | > 100 | > 100 | > 100 | > 100 |  | > 100 | > 100 |  | > 100 | > 100 | > 100 |  | > 100 | > 100
4 | CSC1=N/C(=C\c2ccc(Cl)cc2)C(=O)N1CN1CCOCC1 | 61.6 | > 100 | > 100 | > 100 | > 100 | > 100 |  | > 100 | > 100 | > 100 | > 100 | 30.6 |  | 
5 | O=C(/C=C(\O)C(=O)O)/C=C(\O)c1ccccc1Cl | > 100 |  | > 100 | > 100 | > 100 |  | > 100 | > 100 | > 100 | > 100 |  | > 100 | > 100 | 
6 | CCCN(CCC)C(=S)N/N=C/c1cccc(C)n1 | 3.21 | 28.8 | 15.6 | 0.821 | 1.01 | 2.03 | 0.457 | 0.376 | 0.196 | 3.13 | > 100 | > 100 | 0.748 | 
7 | COC(=O)CC1CN(C(=O)OCc2ccccc2)C(C)(C)O1 (stereo unspecified) | > 100 | > 100 | > 100 | > 100 | > 100 | > 100 | > 100 | > 100 | > 100 | > 100 | > 100 | > 100 | > 100 | 
8 | O=C1OC(c2ccccc2)(c2ccccc2)CC1CN1CCOCC1 (stereo unspecified) | 40.9 |  | 28 | 32 | 31.4 |  | 20.9 | 8.43 | 25.3 | 25.1 |  |  | > 100 | 
9 | CC1N(O)C(c2ccccc2)C(c2ccccc2)=[N+]1[O-] (stereo unspecified) | > 100 |  | > 100 | > 100 | > 100 | > 100 | > 100 | > 100 | > 100 | > 100 |  | > 100 | > 100 | 
10 | c1ccc2c(NCCCCCCCCNc3cccc4ccccc34)cccc2c1 | 67.3 |  |  | 80.6 | 39.6 |  | 51.7 |  | 40 | > 100 |  | 35.7 | 60.5 | 
11 | OC1OC(c2ccc[nH]2)C(F)(F)C(F)(F)C1(F)F (stereo unspecified) | > 100 | > 100 | > 100 | > 100 | > 100 | > 100 | > 100 |  | > 100 | > 100 | > 100 | > 100 | > 100 | > 100
12 | CC(C(O)c1ccccc1)N(C)/N=N/c1nc2c([nH]1)c(=O)n(C)c(=O)n2C (stereo unspecified) | > 100 | > 100 |  | > 100 | > 100 | > 100 | > 100 |  | > 100 | > 100 | > 100 |  | > 100 | > 100
13 | Nc1ccccc1C(=O)NNC(=O)c1ccccc1N | > 100 | > 100 | > 100 | > 100 | > 100 | > 100 | > 100 |  | > 100 | > 100 | > 100 | > 100 |  | > 100
14 | CCCCC1(OC(=O)CCC(=O)O)CCC2(CCC(C)C(C/C=C(C)/C=C/C(O)C(C)/C=C/C(=O)O)O2)OC1CC/C(C)=C/C(=O)O (stereo unspecified) | 7.78 |  | 3.27 | 26.2 | 4.52 |  | 2.57 | > 48.7 | > 50.4 | 9.2 |  | 4.74 | 18.4 | 
15 | CC1C(c2ccccc2)=CCON1c1ccccc1 (stereo unspecified) | > 100 |  | > 100 | > 100 | > 100 |  | > 100 | > 100 | > 100 | > 100 |  |  | > 100 | 
16 | Clc1cccc(Cl)c1C1SCc2nc3cc4ccccc4cc3n21 (stereo unspecified) | > 100 | > 100 |  | > 100 | > 100 | > 100 | > 100 |  | > 100 | > 100 | > 100 |  | > 100 | > 100
17 | Clc1ccc2c(Cl)ncnc2c1I | > 100 |  | > 100 |  | > 100 |  | > 100 | > 100 | > 100 | > 100 |  |  | > 100 | 
18 | Cc1nc(Nc2ccccc2)sc1C(=O)NNC(N)=O | > 100 |  | > 100 | > 100 | > 100 |  | 71.6 |  | > 100 | > 100 |  | > 100 | > 100 | 
19 | Cc1nc2c(n1CCCl)C(=O)c1ccccc1C2=O | 29.7 | 28.6 |  | > 100 | 17.1 | 56.5 | 28.9 | > 100 | 36.6 | > 100 | > 100 | 72.1 | 65.9 | 
20 | BrC12C3C4C5C(C(C43)C13OCCO3)C52 (stereo unspecified) |  |  | > 100 | > 100 |  |  | > 100 |  | > 100 |  |  | > 100 | > 100 | 
21 | C#CCOC(=O)C(N)CS (stereo unspecified) |  | > 100 | > 100 | > 100 | > 100 | > 100 | > 100 |  | > 100 | > 100 | > 100 | > 100 |  | > 100

Source: PubChem BioAssay (NCI)
